Data: patent publication US7273878B2, “Difluoroalkene derivative, pest control agent containing the same, and intermediate therefor” (Kumiai Chemical Industry Co., Ltd., priority 2001, dated 2007)

Assays:
Format in all cases: in vivo
Tetranychus urticae [1] = test: Prevention/extermination test against Tetranychus urticae (500 ppm); settings: 312 h, 500 ppm active ingredient, soybean seedlings inoculated with imago, 25° C., after 13 days, read-out: prevention/extermination titer (preventive titer)
Description: (§1) The wettable powder prepared according to the above Preparation Example 2 was diluted with water to a concentration of 500 ppm as a concentration of active ingredient. Soybean seedlings which had previously been inoculated with the imago of Tetranychus urticae were soaked in the test solution, then air dried. The treated soybean seedlings were left at the constant temperature of 25° C. After 13 days from the treatment, the number of surviving mites was counted, and the prevention/extermination titer was calculated according to the formula 2 below.
(§2) In this test, representative compounds having the acaricidal effect with more than 90 of prevention/extermination titer include compound No. 63, 93, 77, 81, 105, 169, 190, 196 and 208.

Nilaparvata lugenis = test: Insecticidal test for Nilaparvata lugenis; settings: 144 h, 500 ppm active ingredient (wettable powder), 4-instar larvae on germinated rice paddy, 25° C., after 6 days, read-out: mortality rate
Description: The wettable powder prepared according to the above Preparation Example 2 was diluted with water to a concentration of 500 ppm as a concentration of active ingredient. After soaking the germinated rice paddy in the test solution, the paddy was transferred into a 60 ml volume of plastic cup. Ten (10) heads of 4-instar larvae of Nilaparvata lugenis were inoculated on the paddy and capped, then left at the constant temperature of 25° C. After 6 days from the inoculation, the number of surviving insects was counted, and mortality rate of the insect was calculated according to the following formula 1. mortality rate (%)=[(10−number of surviving insect in the test field)/10]×100 (1)

ddy mouse (Slc:ddy) = test: Oral acute toxicity test; set-up: key: 0/3 means none of 3 recipient animals died; 1/3 means one out of 3 recipient animals died; 2/3 means 2 out of 3 recipient animals died; 3/3 means all 3 recipient animals died; settings: oral 30 mg/kg, mortality investigated for 7 days; for Test result Female (mortality, animals died out of 3): female ddy mouse; for Test result Male (mortality, animals died out of 3): male ddy mouse
Description: Oral acute toxicity test was conducted according to the method described in the guideline in “Guideline for the Preparation of Test Report on the Toxicity Studies”, published by the Ministry of Agriculture, Forestry and Fisheries of Japan. Experimental animals, 3 each of male and female of 7 weeks aged ddy mouse (Slc:ddy), were obtained from SLC Japan Inc. The compounds of the present invention and the reference substances were suspended in 0.5% sodium carboxymethyl cellulose or corn oil to give a 30 (mg/kg) equivalent amount for a dosage of 10 ml per 1 kg of body weight. The suspensions were inoculated using a sonde directly into the stomach of test animals which were fasted for 3 hours before inoculation. The test animals were fasted for additional 3 hours after inoculation, and the mortality of the inoculated animal was investigated for 7 days. In this table, 0/3 means none of 3 recipient animals died, 1/3 means one out of 3 recipient animals died, 2/3 means 2 out of 3 recipient animals died, 3/3 means all 3 recipient animals died.

Tetranychus urticae [2] = test: Prevention/extermination test against Tetranychus urticae (0.8 ppm); settings: 312 h, 0.8 ppm active ingredient, soybean seedlings inoculated with imago, 25° C., after 13 days, read-out: prevention/extermination titer
Description: as §1
The wettable powder prepared according to the above Preparation Example 2 was diluted with water to a concentration of 0.8 ppm as a concentration of active ingredient. The same experiment as in Test Example 2 was carried out, and the prevention/extermination titer was calculated according to the formula 2.
as §2

Structure (SMILES) | pest or weed control at 500 ppm (Tetranychus urticae [1]) [%] | pest or weed control at 0.8 ppm (Tetranychus urticae [2]) [%] | also measured
CC(CCCCOC(=O)c1cc2ccccc2o1)=C(F)F [Compound 7, 6,6-difluoro-5-methyl-5-hexenyl benzo[b]furan-2-carboxylate] | > 90 | – | –
CC(CCCCOC(=O)c1c(-c2ccccc2)noc1C)=C(F)F [Compound 12, 6,6-difluoro-5-methyl-5-hexenyl 5-methyl-3-phenyl-isoxazole-4-carboxylate] | > 90 | – | –
CC(CCCCOC(=O)c1c[nH]c2ccccc12)=C(F)F [Compound 13, 6,6-difluoro-5-methyl-5-hexenyl 1H-indole-3-carboxylate] | > 90 | – | –
CC(CCCCOC(=O)c1cc2ccccc2cn1)=C(F)F [Compound 27, 6,6-difluoro-5-methyl-5-hexenyl isoquinoline-3-carboxylate] | > 90 | – | –
CC(CCCCOC(=O)c1ccc2nn(CCCCC(C)=C(F)F)nc2c1)=C(F)F [Compound 31, 6,6-difluoro-5-methyl-5-hexenyl 2-(6,6-difluoro-5-methyl-5-hexenyl)-2H-benzotriazole-5-carboxylate] | > 90 | – | –
CC(CCCCOC(=O)c1cnc2ccccc2n1)=C(F)F [Compound 32, 6,6-difluoro-5-methyl-5-hexenyl quinoxaline-2-carboxylate] | > 90 | – | mortality at 500 ppm (Nilaparvata lugenis): ≥ 90%
CC(CCCCOC(=O)c1n[nH]c2ccccc12)=C(F)F [Compound 33, 6,6-difluoro-5-methyl-5-hexenyl 1H-indazole-3-carboxylate] | > 90 | – | mortality at 500 ppm (Nilaparvata lugenis): ≥ 90%
CC(CCCCOC(=O)c1ccc2c(c1)ncn2CCCCC(C)=C(F)F)=C(F)F [Compound 35, 6,6-difluoro-5-methyl-5-hexenyl 1-(6,6-difluoro-5-methyl-5-hexenyl)-1H-benzoimidazole-5-carboxylate] | > 90 | – | –
CC(CCCCOC(=O)c1cnnc2ccccc12)=C(F)F [Compound 37, 6,6-difluoro-5-methyl-5-hexenyl cinnoline-4-carboxylate] | > 90 | – | –
CC(CCCCOC(=O)c1ccc2nsnc2c1)=C(F)F [Compound 42, 6,6-difluoro-5-methyl-5-hexenyl benzo[1,2,5]-thiadiazole-5-carboxylate] | > 90 | – | –
CC(CCOC(=O)c1sc(-c2ccccc2)nc1C)=C(F)F [Compound 63, 4,4-difluoro-3-methyl-3-butenyl 4-methyl-2-phenyl-thiazole-5-carboxylate] | – | > 90 | Test result Female (mortality, animals died out of 3) (ddy mouse (Slc:ddy)): 0/3; Test result Male (mortality, animals died out of 3) (ddy mouse (Slc:ddy)): 0/3
CCCCOc1ccc(C(=O)OCCC(C)=C(F)F)cn1 [Compound 77, 4,4-difluoro-3-methyl-3-butenyl 6-butoxynicotinate] | – | > 90 | Test result Female (mortality, animals died out of 3) (ddy mouse (Slc:ddy)): 0/3; Test result Male (mortality, animals died out of 3) (ddy mouse (Slc:ddy)): 0/3
CC(CCOC(=O)c1ccc(OC2CCCC2)nc1)=C(F)F [Compound 81, 4,4-difluoro-3-methyl-3-butenyl 6-cyclopentyloxy-nicotinate] | – | > 90 | Test result Female (mortality, animals died out of 3) (ddy mouse (Slc:ddy)): 0/3; Test result Male (mortality, animals died out of 3) (ddy mouse (Slc:ddy)): 0/3
CC(CCOC(=O)c1cnc(-c2ccccc2)nc1C)=C(F)F [Compound 93, 4,4-difluoro-3-methyl-3-butenyl 4-methyl-2-phenyl-pyrimidine-5-carboxylate] | – | > 90 | Test result Female (mortality, animals died out of 3) (ddy mouse (Slc:ddy)): 0/3; Test result Male (mortality, animals died out of 3) (ddy mouse (Slc:ddy)): 0/3
CCCCOc1ncc(C(=O)OCCC(C)=C(F)F)c(C)n1 [Compound 105, 4,4-difluoro-3-methyl-3-butenyl 2-butoxy-4-methyl-pyrimidine-5-carboxylate] | – | > 90 | Test result Female (mortality, animals died out of 3) (ddy mouse (Slc:ddy)): 0/3; Test result Male (mortality, animals died out of 3) (ddy mouse (Slc:ddy)): 0/3
CC(CCOC(=O)c1sc(C2CCCCC2)nc1C)=C(F)F [Compound 169, 4,4-difluoro-3-methyl-3-butenyl 2-cyclohexyl-4-methylthiazole-5-carboxylate] | – | > 90 | mortality at 500 ppm (Nilaparvata lugenis): ≥ 90%
CCN(c1ccc(C)cc1)c1nc(C)c(C(=O)OCCC(C)=C(F)F)s1 [Compound 185, 4,4-difluoro-3-methyl-3-butenyl 2-(N-ethyl-N-4-tolylamino)-4-methylthiazole-5-carboxylate] | > 90 | – | –
CC(CCOC(=O)c1cnc(-c2ccccc2)s1)=C(F)F [Compound 190, 4,4-difluoro-3-methyl-3-butenyl 2-phenylthiazole-5-carboxylate] | – | > 90 | –
CC(CCOC(=O)c1cc(-c2ccccc2)n(C)n1)=C(F)F [Compound 194, 4,4-difluoro-3-methyl-3-butenyl 1-methyl-5-phenyl-1H-pyrazole-3-carboxylate] | > 90 | – | –
CC(CCOC(=O)c1cn(-c2ccccc2)nc1C)=C(F)F [Compound 196, 4,4-difluoro-3-methyl-3-butenyl 3-methyl-1-phenyl-1H-pyrazole-4-carboxylate] | – | > 90 | –
CCCCn1ncc(C(=O)OCCC(C)=C(F)F)c1C [Compound 203, 4,4-difluoro-3-methyl-3-butenyl 1-butyl-5-methyl-1H-pyrazole-4-carboxylate] | > 90 | – | –
CCCCCc1cc(C(=O)OCCC(C)=C(F)F)n(C)n1 [Compound 208, 4,4-difluoro-3-methyl-3-butenyl 2-methyl-5-pentyl-2H-pyrazole-3-carboxylate] | – | > 90 | –
